Source: patent US20130210907A1, “METHOD FOR PREVENTING OR TREATING ENTEROCHROMAFFIN CELL HYPERPLASIA-RELATED DISEASES BY QUERCETIN ADMINISTRATION” (HONG KONG BAPTIST UNIVERSITY, priority 2012, published 2013)

How the values were obtained:
QGP-1 cells [1] = assay: Cytotoxicity by lactate dehydrogenase (LDH) release; format: cell-based, human; details: QGP-1, 25-100 μM, 24 h
Description: The cytotoxicity of Quercetin is determined by lactate dehydrogenase (LDH) assay in QGP-1 cells. Cells are seeded at a density of 5,000 cells/well into 96-well plates and incubated with Quercetin (0-100 μM, 0.01% DMSO) for 24 h. Release of cytoplasmic enzyme lactate dehydrogenase is measured after incubation by using colorimetric assay kit (Roche Molecular Biochemicals, Germany) according to the manufacturer's instructions.

QGP-1 cells [2] = assay: Apoptosis by DAPI staining, fluorescence microscopy; format: cell-based, human; details: QGP-1, 25~100 μM, 24 h
Description: Cells are seeded on coverslips in 24-well plate at the density of 100,000 cells per well and cultured overnight. After exposure to DMSO (control) or different concentration of Quercetin for 24 h, cells are washed three times and fixed with 4% paraformaldehyde for 20 min at room temperature. After washing in PBS, cells are permeabilized in 0.2% tritonX-100 for 10 min and stained with DAPI (20 μg/ml) for 10 min at room temperature in darkness. Slides are examined with a laser scanning microscope (Olympus Fluoview FV1000) 40× magnification. Three hundred cells are counted per slide randomly as previously reported in Ramage L, Jones A C, Whelan C J. Induction of apoptosis with tobacco smoke and related products in A549 lung epithelial cells in vitro. J Inflamm (Lond). 2006; 3:3. Apoptosis cells condense or fragment nuclear chromatin with or without apoptotic bodies, while normal cells have typical morphology with smooth nuclear and membrane.

PI-IBS rats [3] = assay: Colonic tissue 5-HT content (capillary electrophoresis, laser-induced fluorescence); format: in vivo, rat; details: for 5-HT content: PI-IBS rats, colon
Description: Six groups of 5 rats are tested. The groups setting and treatments are as described in Example 1. Different from Example 1, AWR test are not applied to the rats in this experiment in order to obtain the basal data without CRD stimulus. After the last drug administration, a 6 cm proximal colon (1-2 cm from caecum) is collected and divided into 3 parts, the proximal is fixed in 4% paraformaldehyde and embedded in paraffin for EC cell staining; the middle part is collected for 5-HT content measurement and electron microscopic evaluation, and the distal part is for western blotting analysis.
5-HT content in the colon tissue is assayed based on our previously reported procedure in Qi S D, Tian S L, Xu H X, Sung J J, Bian Z X. Quantification of luminally released serotonin in rat proximal colon by capillary electrophoresis with laser-induced fluorescence detection. Anal Bioanal Chem. 2009 April; 393(8):2059-66. Briefly, the colon segment is homogenized in 15% iced trichloroacetic acid; for 2 min and stored at 4° C. for 2 h. After centrifuge at 10,000 G for 15 min, the supernatant of each sample is filtered using 0.22 μm filters and extracted with diethyl ether for five times to remove the trichloroacetic acid. The prepared samples are added to derivatization solution (150 mM sodium tetraborate, 25% acetonitrile, 2 mM CFSE) and incubated for […] in dark at room temperature. The 5-HT content is analyzed by capillary electrophoresis with laser-induced fluorescence detection and expressed as nanogram per milligram (wet weight of tissue).

PI-IBS rats [4] = assay: Abdominal withdrawal reflex (AWR) test: pain threshold pressure to colorectal distension; format: in vivo, rat; details: for Pain threshold pressure, after treatment: 2 weeks
Description: Sprague-Dawley male rats (Laboratory Animal Services Centre, The Chinese University of Hong Kong) aged 6 weeks with body weight around 220 g are used to develop PI-IBS model. Briefly, rats are fasted for 24 h, and deeply anesthetized with chloral hydrate (350 mg.kg^−1, i.p.). After induction of colitis by 2,4,6-trinitrobenzenesulfonic acid solution (TNBS, 5 mg/0.8 ml/rat, in 50% ethanol, 8 cm from anus) administration, the rats are allowed to recover for at least 4 weeks before use. The control rats are similarly administered with 0.8 ml saline instead of TNBS. Only the rats that have completely recovered from the initial inflammation and acquired visceral hypersensitivity are used as the PI-IBS rats.
6 groups of 12 rats are tested. Normal rats (Group 1) are treated with water. PI-IBS rats are randomly divided into 5 groups and orally treated with water (Group 2), Doxantrazole (mast cell stabilizer, 30 mg/kg/d, Group 3), and Quercetin (Group 4-6) at the dose of 5, 10, and 20 mg/kg/d, respectively. After 2 weeks daily drug administration, 5 rats in each group are used to measure pain threshold pressure by abdominal withdrawal reflex (AWR) test, and the remaining […] is used for electromyography (EMG) recording.
AWR test is performed as previously described in Al-Chaer E D, Kawasaki M, Pasricha P J. A new model of chronic visceral hypersensitivity in adult rats induced by colon irritation during postnatal development. Gastroenterology. 2000 November; 119(5):1276-85. Briefly, rats are lightly anesthetized with ether; a latex balloon is inserted into the descending colon. Rats are then allowed to recover for about 1 h. The tube of the balloon is connected via a Y-connector to a sphygmomanometer and colorectal distension is applied in increments of 5 mmHg until a visible contraction of the abdominal wall is observed by an investigator blinded to the treatment. The pain threshold pressure is defined as the intensity of colorectal distension (CRD) that elicited an observable AWR, i.e. a sudden and persistent abdominal muscle contraction with abdomen lift off the platform. The pain threshold pressure of all groups is recorded and repeated five times with intervals of at least 5 minutes for recovery. EMG recording are conducted as previously described in Tammpere A, Brusberg M, Axenborg J, Hirsch I, Larsson H, Lindstrom E. Evaluation of pseudo-affective responses to noxious colorectal distension in rats by manometric recordings. Pain. 2005 August; 116(3):220-6 and Li Z, Zhang X J, Xu H X, Sung J J, Bian Z X. Intracolonical administration of protease-activated receptor-2 agonists produced visceral hyperalgesia by up-regulating serotonin in the colon of rats. Eur J. Pharmacol. 2009 Mar. 15; 606(1-3):199-204. Firstly, a surgical operation is made to implant the electrodes into the left external abdominal oblique muscles 7 days before EMG recording. After the last drug administration, a flexible latex balloon is inserted into the rat descending colon, and the rats are allowed to accommodate for 1 h. CRD is initiated, and the EMG signal is amplified and filtered by Power Lab System. Graded colorectal distension (20, 40, 60, and 80 mmHg; 20 s duration; 2 min inter-stimulus interval) is carried out for total three cycles to each rat. The changes of area under the curve (AUC) are calculated using that during 20 s distension period over the 20 s baseline.

SMILES: O=c1c(O)c(-c2ccc(O)c(O)c2)oc2cc(O)cc(O)c12 [Quercetin, 2-(3,4-dihydroxyphenyl)-3,5,7-trihydroxy-4H-chromen-4-one]
- LDH release (QGP-1 cells [1]): significant and dose-dependent increase
- Apoptosis rate (QGP-1 cells [2]): concentration-dependently increases
- 5-HT content (PI-IBS rats [3]; 5 mg/kg i.g.): 5.15 ± 0.58 ng/mg
- 5-HT content (PI-IBS rats [3]; 10 mg/kg i.g.): 4.63 ± 0.92 ng/mg
- 5-HT content (PI-IBS rats [3]; 20 mg/kg i.g.): 5.50 ± 0.65^ ng/mg
- Decrease of 5-HT content compared with the PI-IBS group (PI-IBS rats [3]; low dose (5 mg/kg)): 28%
- Decrease of 5-HT content compared with the PI-IBS group (PI-IBS rats [3]; median dose (10 mg/kg)): 35%
- Pain threshold pressure, after treatment (PI-IBS rats [4]; 5 mg/kg i.g. daily): 32 ± 1.9 mmHg
- Pain threshold pressure, before treatment (PI-IBS rats [4]; 5 mg/kg i.g. group): 25 ± 1.9 mmHg
- Pain threshold pressure, after treatment (PI-IBS rats [4]; 10 mg/kg i.g. daily): 33 ± 1.8 mmHg
- Pain threshold pressure, before treatment (PI-IBS rats [4]; 10 mg/kg i.g. group): 25 ± 1.1 mmHg
- Pain threshold pressure, after treatment (PI-IBS rats [4]; 20 mg/kg i.g. daily): 35 ± 1.3 mmHg
- Pain threshold pressure, before treatment (PI-IBS rats [4]; 20 mg/kg i.g. group): 24 ± 1.1 mmHg
